Measurements reported in US20250320184A1 (SIRONAX LTD., priority 2022, published 2025).

target: T1, SARM1 (50-724) (Homo sapiens, UniProt Q6SZW1); experiment: biochemical
T1 sequence (Q6SZW1 50-724): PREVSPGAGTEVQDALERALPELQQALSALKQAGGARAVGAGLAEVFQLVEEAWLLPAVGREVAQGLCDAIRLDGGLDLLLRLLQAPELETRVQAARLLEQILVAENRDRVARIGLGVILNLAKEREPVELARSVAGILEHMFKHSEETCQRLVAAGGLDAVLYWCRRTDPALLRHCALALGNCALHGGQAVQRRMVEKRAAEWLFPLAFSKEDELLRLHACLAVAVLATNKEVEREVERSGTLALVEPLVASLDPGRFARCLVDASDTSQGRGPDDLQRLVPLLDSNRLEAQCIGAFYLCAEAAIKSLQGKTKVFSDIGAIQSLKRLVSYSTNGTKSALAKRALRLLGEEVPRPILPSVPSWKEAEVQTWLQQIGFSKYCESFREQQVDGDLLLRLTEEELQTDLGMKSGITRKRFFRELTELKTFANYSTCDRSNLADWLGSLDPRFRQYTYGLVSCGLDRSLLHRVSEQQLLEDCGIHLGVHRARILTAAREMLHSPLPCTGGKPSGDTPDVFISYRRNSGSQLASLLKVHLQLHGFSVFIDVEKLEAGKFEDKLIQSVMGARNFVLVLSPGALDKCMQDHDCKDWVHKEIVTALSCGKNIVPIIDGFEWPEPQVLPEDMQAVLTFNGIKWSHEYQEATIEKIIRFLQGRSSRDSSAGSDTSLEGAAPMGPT
Protocol: An enzymatic assay was performed in a 384-well plate using Dulbecco's phosphate-buffered saline (PBS) as the reaction buffer. […] The reaction was initiated by adding a mixture of 200 μM nicotinamide mononucleotide (NMN) as activator and 100 μM NAD^+ as substrate. After 1 h of incubation at room temperature, the reaction was terminated with 10 times volume of 70% acetonitrile, then centrifuged at 3800 rpm for 10 min.

| IC50 [nM] | SMILES |
| --- | --- |
| < 100 | CC(Nc1cc(F)c2ncn(-c3ncc[nH]3)c(=O)c2c1)c1nc(Cl)c(Cl)s1 (racemic) [Example 375, 6-((1-(4,5-dichlorothiazol-2-yl)ethyl)amino)-8-fluoro-3-(1H-imidazol-2-yl)quinazolin-4(3H)-one] |
| > 1000 | Cc1c(Cl)c(C(C)Nc2ccc3cc[nH]c(=O)c3c2)nn1C (single isomer, unassigned) [Compound 226A] |
| < 100 | Cc1c(Cl)c(C(C)Nc2ccc3cc[nH]c(=O)c3c2)nn1C (single isomer, unassigned) [Compound 226B] |
| > 1000 | C[C@H](Nc1ccc2c(c1)NC(=O)C2(C)C)c1nc(Cl)c(Cl)s1 (single isomer, unassigned) [Compound 234A] |
| < 100 | C[C@@H](Nc1ccc2c(c1)NC(=O)C2(C)C)c1nc(Cl)c(Cl)s1 (single isomer, unassigned) [Compound 234] |
| 100 to 500 | CCC(C(N)=O)c1ccc(NS(=O)(=O)c2cccc(Cl)c2Cl)cc1 (single isomer, unassigned) [Compound 270A] |
| < 100 | CCC(C(N)=O)c1ccc(NS(=O)(=O)c2cccc(Cl)c2Cl)cc1 (single isomer, unassigned) [Compound 270] |
| > 1000 | CC[C@H](C(N)=O)c1ccc(N[C@H](C)c2nc(Cl)c(Cl)s2)cc1 (single isomer, unassigned) [Compound 302A] |
| > 1000 | CC[C@@H](C(N)=O)c1ccc(N[C@H](C)c2nc(Cl)c(Cl)s2)cc1 (single isomer, unassigned) [Compound 302B] |
| 100 to 500 | CC[C@@H](C(N)=O)c1ccc(N[C@@H](C)c2nc(Cl)c(Cl)s2)cc1 (single isomer, unassigned) [Compound 302C] |
| < 100 | CC[C@H](C(N)=O)c1ccc(N[C@@H](C)c2nc(Cl)c(Cl)s2)cc1 (single isomer, unassigned) [Compound 302] |
| 500 to 1000 | O=C1NC(CO)CCc2ccc(NS(=O)(=O)c3cccc(Cl)c3Cl)cc21 (single isomer, unassigned) [Compound 304B] |
| < 100 | O=C1NC(CO)CCc2ccc(NS(=O)(=O)c3cccc(Cl)c3Cl)cc21 (single isomer, unassigned) [Compound 304] |
| > 1000 | Cc1c2ccc(NC(C)c3nc(Cl)c(Cl)s3)cc2nn1CC(N)=O (single isomer, unassigned) [Compound 312B] |
| < 100 | Cc1c2ccc(NC(C)c3nc(Cl)c(Cl)s3)cc2nn1CC(N)=O (single isomer, unassigned) [Compound 312] |
| > 1000 | CC(Nc1ccc2c(c1)C(=O)N(CC(N)=O)C2(C)C)c1nc(Cl)c(Cl)s1 (single isomer, unassigned) [Compound 320A] |
| < 100 | CC(Nc1ccc2c(c1)C(=O)N(CC(N)=O)C2(C)C)c1nc(Cl)c(Cl)s1 (single isomer, unassigned) [Compound 320] |
| > 1000 | CC(Nc1cc(F)c2ncn(CC(N)=O)c(=O)c2c1)c1nc(Cl)c(Cl)s1 (single isomer, unassigned) [Compound 323A] |
| < 100 | CC(Nc1cc(F)c2ncn(CC(N)=O)c(=O)c2c1)c1nc(Cl)c(Cl)s1 (single isomer, unassigned) [Compound 323] |

| IC50 [nM] | SMILES |
| --- | --- |
| < 100 | Cc1c2ccc(NC(C)c3snc(Cl)c3Cl)cc2nn1CC(N)=O (single isomer, unassigned) [Compound 341A] |
| > 1000 | Cc1c2ccc(NC(C)c3snc(Cl)c3Cl)cc2nn1CC(N)=O (single isomer, unassigned) [Compound 341B] |
| > 1000 | Cc1c2ccc(NC(C)c3sc(Cl)nc3Cl)cc2nn1CC(N)=O (single isomer, unassigned) [Compound 347A] |
| < 100 | Cc1c2ccc(NC(C)c3sc(Cl)nc3Cl)cc2nn1CC(N)=O (single isomer, unassigned) [Compound 347] |
| < 100 | CC(Nc1ccc2c(C(F)F)n(CC(N)=O)nc2c1)c1nc(Cl)c(Cl)s1 (single isomer, unassigned) [Compound 355A] |
| > 1000 | CC(Nc1ccc2c(C(F)F)n(CC(N)=O)nc2c1)c1nc(Cl)c(Cl)s1 (single isomer, unassigned) [Compound 355B] |
| < 100 | Cc1nn(CC(N)=O)c(=O)c2cc(NC(C)c3nc(Cl)c(Cl)s3)ccc12 (single isomer, unassigned) [Compound 357] |
| > 1000 | Cc1nn(CC(N)=O)c(=O)c2cc(NC(C)c3nc(Cl)c(Cl)s3)ccc12 (single isomer, unassigned) [Compound 358] |
| < 100 | Cc1nc(C(C)Nc2ccc3c(C)n(CC(N)=O)nc3c2)sc1Cl (single isomer, unassigned) [Compound 362] |
| > 1000 | Cc1nc(C(C)Nc2ccc3c(C)n(CC(N)=O)nc3c2)sc1Cl (single isomer, unassigned) [Compound 363] |
| < 100 | CC(Nc1ccc2c(C(F)(F)F)n(CC(N)=O)nc2c1)c1nc(Cl)c(Cl)s1 (single isomer, unassigned) [Compound 367] |
| > 1000 | CC(Nc1ccc2c(C(F)(F)F)n(CC(N)=O)nc2c1)c1nc(Cl)c(Cl)s1 (single isomer, unassigned) [Compound 368] |
| < 100 | [2H]C(C)(Nc1ccc2c(C)n(CC(N)=O)nc2c1)c1nc(Cl)c(Cl)s1 (single isomer, unassigned) [Compound 377] |
| > 1000 | [2H]C(C)(Nc1ccc2c(C)n(CC(N)=O)nc2c1)c1nc(Cl)c(Cl)s1 (single isomer, unassigned) [Compound 378] |
| < 100 | Cc1sc(C(C)Nc2ccc3c(C)n(CC(N)=O)nc3c2)nc1Cl (single isomer, unassigned) [Compound 380] |
| > 1000 | Cc1sc(C(C)Nc2ccc3c(C)n(CC(N)=O)nc3c2)nc1Cl (single isomer, unassigned) [Compound 381] |
| < 100 | CC(Nc1ccc2nc[nH]c(=O)c2n1)c1c(Cl)ccc(F)c1Cl (single isomer, unassigned) [Compound 382] |
| > 1000 | CC(Nc1ccc2nc[nH]c(=O)c2n1)c1c(Cl)ccc(F)c1Cl (single isomer, unassigned) [Compound 383] |
| > 1000 | CC(Nc1ccc2nc[nH]c(=O)c2n1)c1ccc(F)c(Cl)c1Cl (single isomer, unassigned) [Compound 385] |

| IC50 [nM] | SMILES |
| --- | --- |
| < 100 | CC(Nc1ccc2nc[nH]c(=O)c2n1)c1ccc(F)c(Cl)c1Cl (single isomer, unassigned) [Compound 386] |
| < 100 | CC(Nc1ccc2nc[nH]c(=O)c2n1)c1c(F)ccc(Cl)c1Cl (single isomer, unassigned) [Compound 387] |
| > 1000 | CC(Nc1ccc2nc[nH]c(=O)c2n1)c1c(F)ccc(Cl)c1Cl (single isomer, unassigned) [Compound 388] |
| > 1000 | Cc1c2c(F)cc(NC(C)c3nc(Cl)c(Cl)s3)cc2nn1CC(N)=O (single isomer, unassigned) [Compound 390] |
| < 100 | Cc1c2c(F)cc(NC(C)c3nc(Cl)c(Cl)s3)cc2nn1CC(N)=O (single isomer, unassigned) [Compound 391] |
| 500 to 1000 | COc1nccc(C(C)Nc2ccc3c(c2)C(=O)NCC3)c1Cl (single isomer, unassigned) [Example 95] |
| < 100 | CC(Nc1ccc2c(c1)C(=O)NCC2)c1cccc(Cl)c1Cl (single isomer, unassigned) [Example 111] |
| 500 to 1000 | CC(Nc1ccc2nc[nH]c(=O)c2c1)c1cccc(Cl)c1Cl (single isomer, unassigned) [Example 152A] |
| < 100 | CC(Nc1ccc2nc[nH]c(=O)c2c1)c1cccc(Cl)c1Cl (single isomer, unassigned) [Example 152] |
| < 100 | C[C@@H](Nc1ccc2cc[nH]c(=O)c2c1)c1nccc(Cl)c1Cl (single isomer, unassigned) [Example 194A, (S or R)-7-((1-(3,4-dichloropyridin-2-yl)ethyl)amino)isoquinolin-1(2H)-one] |
| > 1000 | CC(Nc1ccc2cc[nH]c(=O)c2c1)c1nccc(Cl)c1Cl (single isomer, unassigned) [Example 194B] |
| > 1000 | CC(Nc1ccc2nc[nH]c(=O)c2c1)c1c(Cl)ccc(F)c1Cl (single isomer, unassigned) [Example 201A] |
| < 100 | CC(Nc1ccc2nc[nH]c(=O)c2c1)c1c(Cl)ccc(F)c1Cl (single isomer, unassigned) [Example 201] |
| 500 to 1000 | Cc1n[nH]c(=O)c2cc(N[C@H](C)c3c(Cl)ccc(F)c3Cl)ccc12 (single isomer, unassigned) [Example 237A] |
| < 100 | Cc1n[nH]c(=O)c2cc(N[C@@H](C)c3c(Cl)ccc(F)c3Cl)ccc12 (single isomer, unassigned) [Example 237] |
| < 100 | Cc1n[nH]c(=O)c2cc(N[C@@H](C)c3nc(Cl)c(Cl)s3)ccc12 (single isomer, unassigned) [Example 239A] |
| > 1000 | Cc1n[nH]c(=O)c2cc(NC(C)c3nc(Cl)c(Cl)s3)ccc12 (single isomer, unassigned) [Example 239B] |
| > 1000 | CC(Nc1cc(F)c2ncn(-c3ccn[nH]3)c(=O)c2c1)c1nc(Cl)c(Cl)s1 (single isomer, unassigned) [Example 356A] |
